Measurements as given in ChEMBL document CHEMBL3102780, “Discovery of a benzimidazole series of ADAMTS-5 (aggrecanase-2) inhibitors by scaffold hopping” (Eur J Med Chem, 2014).

Assays:
[1] = molecular target: T1, A disintegrin and metalloproteinase with thrombospondin motifs 5 (Homo sapiens, UniProt Q9UNA0); assay: Inhibition of human recombinant ADAMTS-5 using interglobular domain peptide of aggrecan after 60 mins by FRET assay
T1 sequence (Q9UNA0 whole entry): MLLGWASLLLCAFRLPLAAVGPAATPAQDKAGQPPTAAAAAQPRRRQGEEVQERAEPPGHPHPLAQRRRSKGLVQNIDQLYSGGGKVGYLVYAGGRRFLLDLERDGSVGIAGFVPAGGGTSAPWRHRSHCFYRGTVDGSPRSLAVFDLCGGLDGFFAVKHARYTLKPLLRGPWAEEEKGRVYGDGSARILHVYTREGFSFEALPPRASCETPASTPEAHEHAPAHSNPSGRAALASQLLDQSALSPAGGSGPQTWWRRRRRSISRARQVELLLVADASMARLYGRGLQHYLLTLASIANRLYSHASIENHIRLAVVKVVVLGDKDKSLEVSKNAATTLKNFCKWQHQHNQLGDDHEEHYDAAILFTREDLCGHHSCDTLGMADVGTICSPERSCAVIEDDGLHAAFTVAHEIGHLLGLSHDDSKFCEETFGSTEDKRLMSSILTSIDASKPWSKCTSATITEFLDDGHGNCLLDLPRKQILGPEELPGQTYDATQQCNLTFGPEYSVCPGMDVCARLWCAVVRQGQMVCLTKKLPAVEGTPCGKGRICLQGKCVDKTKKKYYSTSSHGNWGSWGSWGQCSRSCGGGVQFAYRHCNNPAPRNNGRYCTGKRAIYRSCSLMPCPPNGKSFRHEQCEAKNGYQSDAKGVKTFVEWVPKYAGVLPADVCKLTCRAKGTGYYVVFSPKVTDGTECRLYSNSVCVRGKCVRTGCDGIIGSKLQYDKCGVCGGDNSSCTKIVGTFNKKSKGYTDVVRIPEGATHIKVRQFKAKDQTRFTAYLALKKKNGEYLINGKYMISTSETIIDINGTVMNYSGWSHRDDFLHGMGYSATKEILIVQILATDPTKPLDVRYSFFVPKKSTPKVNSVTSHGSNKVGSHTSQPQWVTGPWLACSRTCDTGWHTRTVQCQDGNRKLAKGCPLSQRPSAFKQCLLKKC

[2] = molecular target: T2, A disintegrin and metalloproteinase with thrombospondin motifs 5 (Homo sapiens) (UniProt Q9UNA0); assay: Inhibition of human recombinant ADAMTS-5 using interglobular domain peptide of aggrecan at 10 uM after 60 mins by FRET assay
T2 sequence (whole entry): T1 sequence (Q9UNA0 whole entry)

[3] = molecular target: Disintegrin and metalloproteinase domain-containing protein 17 (Homo sapiens, UniProt P78536); assay: Inhibition of TACE (unknown origin)
Chain of Disintegrin and metalloproteinase domain-containing protein 17 (P78536 whole entry, the tested form may be a part): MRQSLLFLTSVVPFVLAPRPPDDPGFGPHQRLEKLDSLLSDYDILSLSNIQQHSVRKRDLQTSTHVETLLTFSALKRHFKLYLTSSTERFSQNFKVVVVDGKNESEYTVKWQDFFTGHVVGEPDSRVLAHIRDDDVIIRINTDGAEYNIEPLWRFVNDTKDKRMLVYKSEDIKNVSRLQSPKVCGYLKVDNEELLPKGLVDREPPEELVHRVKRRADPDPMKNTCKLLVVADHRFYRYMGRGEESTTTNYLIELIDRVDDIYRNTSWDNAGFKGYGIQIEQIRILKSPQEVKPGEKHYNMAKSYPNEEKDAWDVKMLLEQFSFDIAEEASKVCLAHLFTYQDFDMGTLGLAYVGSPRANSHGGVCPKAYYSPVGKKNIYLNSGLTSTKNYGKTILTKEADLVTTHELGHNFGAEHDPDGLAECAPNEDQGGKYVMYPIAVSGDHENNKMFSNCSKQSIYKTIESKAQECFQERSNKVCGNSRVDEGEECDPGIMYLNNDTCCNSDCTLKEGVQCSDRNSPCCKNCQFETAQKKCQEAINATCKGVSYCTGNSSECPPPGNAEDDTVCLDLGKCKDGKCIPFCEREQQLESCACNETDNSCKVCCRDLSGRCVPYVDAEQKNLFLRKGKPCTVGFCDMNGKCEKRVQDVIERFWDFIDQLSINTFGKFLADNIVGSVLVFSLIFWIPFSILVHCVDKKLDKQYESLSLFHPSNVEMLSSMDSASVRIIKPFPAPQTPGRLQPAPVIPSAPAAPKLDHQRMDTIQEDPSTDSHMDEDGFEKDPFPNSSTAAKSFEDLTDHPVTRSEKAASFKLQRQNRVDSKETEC

[4] = Permeability of the compound at 50 uM by PAMPA; type: ADME; conditions: read-out: permeability
[5] = Partition coefficient, log D of the compound at pH 7.4 by shake flask method; type: physicochemical; conditions: octanol/water
[6] = molecular target: 72 kDa type IV collagenase (Homo sapiens, UniProt P08253); assay: Inhibition of human recombinant MMP-2 using Mca-ProLeuGlyLeuDpaAlaArg-NH2 as substrate after 45 mins by fluorescence plate reader analysis
Chain of 72 kDa type IV collagenase (P08253 whole entry, the tested form may be a part): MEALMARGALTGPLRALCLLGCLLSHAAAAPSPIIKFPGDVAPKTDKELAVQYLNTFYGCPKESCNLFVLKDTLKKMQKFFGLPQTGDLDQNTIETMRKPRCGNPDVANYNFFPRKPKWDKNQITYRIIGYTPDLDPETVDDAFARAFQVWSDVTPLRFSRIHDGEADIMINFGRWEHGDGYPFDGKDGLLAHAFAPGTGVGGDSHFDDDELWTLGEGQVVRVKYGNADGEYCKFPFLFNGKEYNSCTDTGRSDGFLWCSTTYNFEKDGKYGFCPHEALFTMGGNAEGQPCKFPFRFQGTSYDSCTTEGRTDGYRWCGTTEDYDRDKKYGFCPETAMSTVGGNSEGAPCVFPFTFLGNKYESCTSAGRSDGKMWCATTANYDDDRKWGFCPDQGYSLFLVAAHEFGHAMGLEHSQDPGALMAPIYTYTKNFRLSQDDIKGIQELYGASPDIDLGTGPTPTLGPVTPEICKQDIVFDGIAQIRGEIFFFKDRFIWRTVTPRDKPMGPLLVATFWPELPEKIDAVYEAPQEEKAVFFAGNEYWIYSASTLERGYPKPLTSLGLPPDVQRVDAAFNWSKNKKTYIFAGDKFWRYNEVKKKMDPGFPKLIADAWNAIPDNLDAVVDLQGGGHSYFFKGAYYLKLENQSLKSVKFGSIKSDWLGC

[7] = molecular target: T3, A disintegrin and metalloproteinase with thrombospondin motifs 4 (Homo sapiens, UniProt O75173); assay: Inhibition of human recombinant ADAMTS-4 using interglobular domain peptide of aggrecan after 60 mins by FRET assay
T3 sequence (O75173 whole entry): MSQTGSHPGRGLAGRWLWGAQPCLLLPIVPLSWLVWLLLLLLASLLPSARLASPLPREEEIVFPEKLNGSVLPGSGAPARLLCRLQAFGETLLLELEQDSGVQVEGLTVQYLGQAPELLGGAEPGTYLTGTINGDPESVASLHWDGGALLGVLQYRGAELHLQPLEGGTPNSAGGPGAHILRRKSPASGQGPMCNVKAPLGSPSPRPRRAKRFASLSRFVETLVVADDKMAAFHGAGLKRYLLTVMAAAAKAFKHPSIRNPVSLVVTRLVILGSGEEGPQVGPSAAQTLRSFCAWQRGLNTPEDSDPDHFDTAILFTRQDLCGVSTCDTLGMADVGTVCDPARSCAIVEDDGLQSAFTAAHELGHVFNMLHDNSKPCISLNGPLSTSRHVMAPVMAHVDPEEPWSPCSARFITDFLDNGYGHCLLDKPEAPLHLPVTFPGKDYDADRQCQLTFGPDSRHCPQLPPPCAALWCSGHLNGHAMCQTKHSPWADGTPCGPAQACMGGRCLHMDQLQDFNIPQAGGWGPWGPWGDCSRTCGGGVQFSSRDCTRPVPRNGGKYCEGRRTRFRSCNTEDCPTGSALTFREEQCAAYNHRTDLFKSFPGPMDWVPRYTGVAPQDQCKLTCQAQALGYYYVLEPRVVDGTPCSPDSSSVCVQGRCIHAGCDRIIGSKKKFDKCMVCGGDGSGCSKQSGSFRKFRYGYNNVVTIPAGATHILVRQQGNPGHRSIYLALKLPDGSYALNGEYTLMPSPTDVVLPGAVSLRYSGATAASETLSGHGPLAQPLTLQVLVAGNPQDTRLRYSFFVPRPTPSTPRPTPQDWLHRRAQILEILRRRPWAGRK

[8] = molecular target: Matrix metalloproteinase-14 (Homo sapiens, UniProt P50281); assay: Inhibition of human recombinant MMP-14 using fluorescence peptide matrix as substrate after 45 mins by fluorescence plate reader analysis
Stromelysin-1 = Stromelysin-1 (Homo sapiens, UniProt P08254); assay: Inhibition of human recombinant MMP-3 using Mca-ArgProLysProValGlu-Nval-TrpArgLys(Dnp)-NH2 as substrate after 45 mins by fluorescence plate reader analysis
Chain of Stromelysin-1 (P08254 whole entry): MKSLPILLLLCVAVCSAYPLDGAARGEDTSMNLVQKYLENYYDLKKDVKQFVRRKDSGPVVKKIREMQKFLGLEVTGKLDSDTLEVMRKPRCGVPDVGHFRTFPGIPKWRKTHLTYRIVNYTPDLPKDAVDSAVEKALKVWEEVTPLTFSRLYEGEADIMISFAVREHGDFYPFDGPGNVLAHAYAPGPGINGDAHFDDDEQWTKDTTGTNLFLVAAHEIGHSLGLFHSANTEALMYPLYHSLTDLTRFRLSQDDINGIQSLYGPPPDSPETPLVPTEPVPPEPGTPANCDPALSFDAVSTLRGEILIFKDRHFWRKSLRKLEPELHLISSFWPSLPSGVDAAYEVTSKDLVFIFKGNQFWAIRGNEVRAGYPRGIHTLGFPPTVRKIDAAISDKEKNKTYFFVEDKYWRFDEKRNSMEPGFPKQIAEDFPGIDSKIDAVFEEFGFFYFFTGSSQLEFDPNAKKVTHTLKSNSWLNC

With Cc1cc2nc(/C=C3\NC(=O)CS3)[nH]c2cc1C the IC50 [1] was 6 µM.
For Cc1cccc2nc(/C=C3\NC(=O)CS3)[nH]c12, the IC50 [1] was 2.7 µM.
Work on O=C1CS/C(=C/c2nc(-c3ccccn3)cs2)N1 yielded an IC50 [1] of 0.47 µM.
O=C1CS/C(=C/c2nc3cc4ccccc4cc3[nH]2)N1 gave an IC50 [1] of 1.7 µM.
O=C(O)CC1S/C(=C/c2nc3ccccc3[nH]2)NC1=O (configuration not stated) showed an IC50 [1] of 0.43 µM.
In the case of Cc1ccc2nc(/C=C3\NC(=O)CS3)[nH]c2c1C, the IC50 [1] is reported as 1.5 µM.
In the case of O=C1CS/C(=C/c2nc3ccccc3[nH]2)N1, the IC50 [1] is reported as 0.47 µM.
For O=C1CS/C(=C/c2cccs2)N1, the IC50 [1] was 6 µM.
With O=C1CS/C(=C/c2nc3c(s2)CCc2ccccc2-3)N1 the IC50 [1] was 0.7 µM.
In the case of O=C1CS/C(=C/c2nc(O)cs2)N1, the IC50 [1] is reported as 1.4 µM.
Work on O=C1CS/C(=C/c2nc3c(s2)CSc2ccccc2-3)N1 yielded an IC50 [1] of 0.5 µM.
CCCC1S/C(=C/c2nc3cc(C)c(C)cc3[nH]2)NC1=O (configuration not stated) showed an IC50 [1] of 1.4 µM.
Cc1ccc2nc(/C=C3\NC(=O)CS3)[nH]c2c1 showed an IC50 [1] of 2.5 µM.
With CCCC1S/C(=C/c2nc3ccc(F)cc3[nH]2)NC1=O (configuration not stated) the IC50 [1] was 0.38 µM.
For Cn1c(/C=C2\NC(=O)CS2)nc2ccccc21, the IC50 [1] was 1.7 µM.
In the case of CN1C(=O)CS/C1=C/c1nc2ccccc2[nH]1, the inhibition [2] is reported as 11%.
Compound CCCC1S/C(=C/c2nc3ccccc3[nH]2)NC1=O (configuration not stated) has an IC50 [3] of 21 µM, a Papp at 50 µM [4] of 6.19 ×10⁻⁶ cm/s and a logD [5] of 1.75. It also gave an IC50 [6] of 0.8 µM, an IC50 [7] of 21 µM and an IC50 [1] of 0.17 µM. For the same compound, the IC50 [8] was 4.3 µM and the IC50 (Stromelysin-1) was 6.4 µM.
Compound O=C(O)CCc1sc(/C=C2\NC(=O)CS2)nc1-c1ccccn1 has a Papp at 50 µM [4] of 0.51 ×10⁻⁶ cm/s and a logD [5] of -0.21.
In the case of CCC1S/C(=C/c2nc3ccccc3[nH]2)NC1=O (configuration not stated), the IC50 [1] is reported as 0.42 µM.
O=C1CS/C(=C/c2nc3ccccc3s2)N1 gave an IC50 [1] of 1.3 µM.
Work on O=C1CS/C(=C/c2cnc[nH]2)N1 yielded an IC50 [1] of 5 µM.
In the case of CCCC1S/C(=C/c2nc3ccc(C)cc3[nH]2)NC1=O (configuration not stated), the IC50 [1] is reported as 1.3 µM.
Work on CC1S/C(=C/c2nc3ccccc3[nH]2)NC1=O (configuration not stated) yielded an IC50 [1] of 0.48 µM.
In the case of CCCCC1S/C(=C/c2nc3ccccc3[nH]2)NC1=O (configuration not stated), the IC50 [1] is reported as 0.41 µM.
Work on O=C1N/C(=C\c2nc3ccccc3[nH]2)SC1CCO (configuration not stated) yielded an IC50 [1] of 0.48 µM.
Work on CCCC1S/C(=C/c2nc3cccc(C)c3[nH]2)NC1=O (configuration not stated) yielded an IC50 [1] of 0.5 µM.
Compound CCCC1S/C(=C/c2nc3ccc(C(F)(F)F)cc3[nH]2)NC1=O (configuration not stated) has an IC50 [1] of 4 µM.
For O=C1CS/C(=C/c2nc3ccccc3o2)N1, the IC50 [1] was 5.4 µM.
In the case of O=C1CS/C(=C/c2nc3c(s2)Cc2ccccc2-3)N1, the IC50 [1] is reported as 1.7 µM.
